Key:
Experiment in all cases: relative viability (nuclei count vs DMSO), 5 days (fraction); higher = more cells survive
[1] = tested on: RERF-LC-KJ
Procedure, shortened: (§1)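 Relative viability divides the nuclei count in treated wells by that in vehicle wells. Lung cancer cell lines were seeded in 1536-well plates, dosed by pin tool the next day, and fixed and stained after 5 days in one step with final 0.05% Triton X-100, 1% formaldehyde and 1 ug/ml Hoechst. Dosing was a single drug or a fixed anchor-drug dose plus five library-drug doses (not always all listed) in √10 steps, and values are medians of duplicate plates imaged at 4×.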

[2] = tested on: NCI-H1944
Procedure, shortened: as §1

[3] = tested on: NCI-H650
Procedure, shortened: as §1

[4] = tested on: NCI-H838
Procedure, shortened: as §1

[5] = tested on: NCI-H520
Procedure, shortened: as §1

[6] = tested on: PC-3 [JPC-3]
Procedure, shortened: as §1

[7] = tested on: NCI-H1651
Procedure, shortened: as §1

[8] = tested on: NCI-H1299
Procedure, shortened: as §1

[9] = tested on: NCI-H1703
Procedure, shortened: as §1

[10] = tested on: IA-LM
Procedure, shortened: as §1

[11] = tested on: A549
Procedure, shortened: as §1

[12] = tested on: Calu-6
Procedure, shortened: as §1

[13] = tested on: EBC-1
Procedure, shortened: as §1

CC(=O)O[C@@]12CO[C@@H]1C[C@H](O)[C@@]1(C)C(=O)[C@H](O)C3=C(C)[C@@H](OC(=O)[C@H](O)[C@@H](NC(=O)OC(C)(C)C)c4ccccc4)C[C@@](O)([C@@H](OC(=O)c4ccccc4)[C@H]21)C3(C)C [Docetaxel] + CS(=O)(=O)N1CCN(Cc2cc3nc(-c4cccc5[nH]ncc45)nc(N4CCOCC4)c3s2)CC1 [Pictilisib] (partner 1 µM)
relative viability ([1]; first compound 0.0002 µM): 0.525
relative viability ([1]; first compound 0.000632 µM): 0.408
relative viability ([1]; first compound 0.002 µM): 0.189
relative viability ([1]; first compound 0.006325 µM): 0.223
relative viability ([1]; first compound 0.02 µM): 0.104
relative viability ([2]; first compound 0.0002 µM): 0.338
relative viability ([2]; first compound 0.000632 µM): 0.368
relative viability ([2]; first compound 0.002 µM): 0.318
relative viability ([2]; first compound 0.006325 µM): 0.322
relative viability ([2]; first compound 0.02 µM): 0.178
relative viability ([3]; first compound 0.0002 µM): 0.75
relative viability ([3]; first compound 0.000632 µM): 0.48
relative viability ([3]; first compound 0.002 µM): 0.313
relative viability ([3]; first compound 0.006325 µM): 0.274
relative viability ([3]; first compound 0.02 µM): 0.207
relative viability ([4]; first compound 0.0002 µM): 0.477
relative viability ([4]; first compound 0.000632 µM): 0.473
relative viability ([4]; first compound 0.002 µM): 0.276
relative viability ([4]; first compound 0.006325 µM): 0.149
relative viability ([4]; first compound 0.02 µM): 0.116
relative viability ([5]; first compound 0.0002 µM): 0.274
relative viability ([5]; first compound 0.000632 µM): 0.27
relative viability ([5]; first compound 0.002 µM): 0.239
relative viability ([5]; first compound 0.006325 µM): 0.231
relative viability ([5]; first compound 0.02 µM): 0.157
relative viability ([6]; first compound 0.0002 µM): 0.693
relative viability ([6]; first compound 0.000632 µM): 0.715
relative viability ([6]; first compound 0.002 µM): 0.454
relative viability ([6]; first compound 0.006325 µM): 0.329
relative viability ([6]; first compound 0.02 µM): 0.229
relative viability ([7]; first compound 0.0002 µM): 0.477
relative viability ([7]; first compound 0.000632 µM): 0.443
relative viability ([7]; first compound 0.002 µM): 0.206
relative viability ([7]; first compound 0.006325 µM): 0.095
relative viability ([7]; first compound 0.02 µM): 0.0784
relative viability ([8]; first compound 0.0002 µM): 0.761
relative viability ([8]; first compound 0.000632 µM): 0.579
relative viability ([8]; first compound 0.002 µM): 0.305
relative viability ([8]; first compound 0.006325 µM): 0.14
relative viability ([8]; first compound 0.02 µM): 0.109
relative viability ([9]; first compound 0.0002 µM): 0.235
relative viability ([9]; first compound 0.000632 µM): 0.26
relative viability ([9]; first compound 0.002 µM): 0.2
relative viability ([9]; first compound 0.006325 µM): 0.161
relative viability ([9]; first compound 0.02 µM): 0.136
relative viability ([10]; first compound 0.0002 µM): 0.183
relative viability ([10]; first compound 0.000632 µM): 0.11
relative viability ([10]; first compound 0.002 µM): 0.0755
relative viability ([10]; first compound 0.006325 µM): 0.0696
relative viability ([10]; first compound 0.02 µM): 0.064
relative viability ([11]; first compound 0.0002 µM): 0.44
relative viability ([11]; first compound 0.000632 µM): 0.22
relative viability ([11]; first compound 0.002 µM): 0.0741
relative viability ([11]; first compound 0.006325 µM): 0.0602
relative viability ([11]; first compound 0.02 µM): 0.035
relative viability ([12]; first compound 0.0002 µM): 0.937
relative viability ([12]; first compound 0.000632 µM): 0.754
relative viability ([12]; first compound 0.006325 µM): 0.128
relative viability ([12]; first compound 0.02 µM): 0.0823
relative viability ([13]; first compound 0.0002 µM): 0.347
relative viability ([13]; first compound 0.000632 µM): 0.267
relative viability ([13]; first compound 0.002 µM): 0.189
relative viability ([13]; first compound 0.006325 µM): 0.164
